Laboratory results reported in patent US8906828B2, “Compositions and methods for post emergent weed control with clethodim and gibberellic acid” (Valent U.S.A. Corporation, priority 2012, dated 2014).

How the values were obtained:
Johnsongrass = test: Post emergent treatment of plots with abundant Johnsongrass growth, % control (Example 1); type: in vivo, Sorghum halepense
Protocol: In order to determine the efficacy of combinations of clethodim and GA3, numerous treatments were applied to plots in an area with abundant Johnsongrass growth.
The percent control of Johnsongrass plants was evaluated at 7, 18 and 28 days following the treatment. Effect of Clethodim and GA3 Treatments on Johnsongrass (% control).”
The percent control refers to the amount of dead tissue on the plants present. It would be dead plants plus desiccated foliage on partially killed plants.

[1] = test system: Glyphosate resistant corn; test: Clethodim and GA3 treatments on planted glyphosate resistant corn, % control (Example 2); type: in vivo
Protocol: A further study was performed in order to confirm the effect clethodim and GA3 treatments have on corn. Glyphosate resistant corn was planted with a conventional four-row planter. Treatments were applied 28 days after the plantings.
The percent corn control was evaluated at […] days following the treatments. Effect of Clethodim and GA3 Treatments on corn (% control).

With `C=C1C[C@]23C[C@@]1(O)CC[C@H]2[C@@]12C=C[C@H](O)[C@@](C)(C(=O)O1)[C@H]2[C@@H]3C(=O)O` [GA3, Gibberellic acid] the “Effect of GA3 on the activity of clethodim on Johnsongrass” value (Johnsongrass; seven days following treatment, versus clethodim alone) was “more than doubles” and the “Effect of GA3 on the activity of clethodim on corn” value ([1]; presence of GA3) was “significantly increased”.

For `CCSC(C)CC1CC(=O)C(C(CC)=NOC/C=C/Cl)=C(O)C1` (centres unmarked) [Clethodim, 2-[1-[[[(2E)-3-chloro-2-propen-1-yl]oxy]imino]propyl]-5-[2-(ethylthio)propyl]-3-hydroxy-2-cyclohexen-1-one], the “Johnsongrass % control 7 DAT” value (Johnsongrass; Clethodim 32 x g ai/a (9 fl oz/a of Selectmax), 0.25% v/v non-ionic surfactant and 2.5 lb/acre AMS, 7 DAT) was 37.21%, the “Johnsongrass % control 18 DAT” value (Johnsongrass; Clethodim 32 x g ai/a (9 fl oz/a of Selectmax), 0.25% v/v non-ionic surfactant and 2.5 lb/acre AMS, 18 DAT) was 85.66% and the “Johnsongrass % control 28 DAT” value (Johnsongrass; Clethodim 32 x g ai/a (9 fl oz/a of Selectmax), 0.25% v/v non-ionic surfactant and 2.5 lb/acre AMS, 28 DAT) was 89.26%. For the same compound, the “Corn % control 6 DAT” value ([1]; Clethodim 32 gm ai/a, 0.25% v/v non-ionic surfactant and 2.5 lb/acre ammonium sulfate, 6 DAT) was 48.33%, the “Corn % control 13 DAT” value ([1]; Clethodim 32 gm ai/a, 0.25% v/v non-ionic surfactant and 2.5 lb/acre ammonium sulfate, 13 DAT) was 88.33% and the “Corn % control 29 DAT” value ([1]; Clethodim 32 gm ai/a, 0.25% v/v non-ionic surfactant and 2.5 lb/acre ammonium sulfate, 29 DAT) was 96.00%.
